The results in this text go back to patent US20180050993A1, “NOVEL FLUORINATED DERIVATIVES AS EGFR INHIBITORS USEFUL FOR TREATING CANCERS” (Trillium Therapeutics Inc., priority 2015, published 2018).

Counter-ions that a name gives are not always drawn. Like-named read-outs stand apart in the source and are kept apart here.

The nature of data set [1]: Mouse liver microsomal stability. It counts as in vitro ADME. The following applies: stability in pooled mouse (CD-1, male) liver microsomes 0.5 mg/ml, compound 1 μM, parent compound by LC/MS, in % (unit assumed). On the procedure:
(§1) Working stocks were initially diluted to a concentration of 40.0 μM in 0.1 M potassium phosphate buffer before addition to the reaction vials. Pooled mouse (CD-1, male) or human (50 donors) liver microsomes were utilized at a final concentration of 0.5 mg/ml. Duplicate wells were used for each time point (0 and 30 minutes). Reactions were carried out at 37° C. in a shaker, and the final concentration of DMSO was kept constant at 0.01%. The final volume for each reaction was 100 μL, which includes the addition of an NADPH-Regeneration solution (NRS) mix. This NRS mix is comprised of glucose 6-phosphate dehydrogenase (0.4 U/mL), NADP+ (1.3 mM), MgCl2 (3.3 mM), and glucose 6-phosphate (3.3 mM) in assay mixtures. Upon completion of the 30 minute time point, reactions were terminated by the addition of 1.5-volumes (150 μL) of ice-cold, acetonitrile with 0.5% formic acid and internal standard. Samples were then centrifuged at 4,000 rpm for 10 minutes to remove debris and precipitated protein. Approximately 150 μL of supernatant was subsequently transferred to a new 96 well microplate for LC/MS analysis.
(§2) Narrow-window mass extraction LC/MS analysis was performed for all samples using a Waters Xevo quadrupole time-of-flight (QTof) mass spectrometer and an ACQUITY UPLC system, to determine relative peak areas of parent compound.
(§3) Human and mouse liver microsomes contain a wide variety of drug metabolizing enzymes and are commonly used to support in vitro ADME (absorption, distribution, metabolism and excretion) studies. These microsomes are used to examine the potential first-pass metabolism by-products of orally administered drugs. Representative compounds of the application were evaluated for their stability in human and mouse liver microsomes.
On the technique in general: Liver microsomes are vesicles of endoplasmic reticulum, rich in cytochrome P450 enzymes.

Data set [2] is described as follows: Human liver microsomal stability. It counts as in vitro ADME. The following applies: stability in pooled human (50 donors) liver microsomes 0.5 mg/ml, compound 1 μM, parent compound by LC/MS. The procedure:
as §1, §2, §3

In data set [3] the target is T1, EGFR (L858R) (Homo sapiens, UniProt P00533, L858R).
T1 construct: purchased Reaction Biology
T1 sequence (P00533 25-1210 L858R): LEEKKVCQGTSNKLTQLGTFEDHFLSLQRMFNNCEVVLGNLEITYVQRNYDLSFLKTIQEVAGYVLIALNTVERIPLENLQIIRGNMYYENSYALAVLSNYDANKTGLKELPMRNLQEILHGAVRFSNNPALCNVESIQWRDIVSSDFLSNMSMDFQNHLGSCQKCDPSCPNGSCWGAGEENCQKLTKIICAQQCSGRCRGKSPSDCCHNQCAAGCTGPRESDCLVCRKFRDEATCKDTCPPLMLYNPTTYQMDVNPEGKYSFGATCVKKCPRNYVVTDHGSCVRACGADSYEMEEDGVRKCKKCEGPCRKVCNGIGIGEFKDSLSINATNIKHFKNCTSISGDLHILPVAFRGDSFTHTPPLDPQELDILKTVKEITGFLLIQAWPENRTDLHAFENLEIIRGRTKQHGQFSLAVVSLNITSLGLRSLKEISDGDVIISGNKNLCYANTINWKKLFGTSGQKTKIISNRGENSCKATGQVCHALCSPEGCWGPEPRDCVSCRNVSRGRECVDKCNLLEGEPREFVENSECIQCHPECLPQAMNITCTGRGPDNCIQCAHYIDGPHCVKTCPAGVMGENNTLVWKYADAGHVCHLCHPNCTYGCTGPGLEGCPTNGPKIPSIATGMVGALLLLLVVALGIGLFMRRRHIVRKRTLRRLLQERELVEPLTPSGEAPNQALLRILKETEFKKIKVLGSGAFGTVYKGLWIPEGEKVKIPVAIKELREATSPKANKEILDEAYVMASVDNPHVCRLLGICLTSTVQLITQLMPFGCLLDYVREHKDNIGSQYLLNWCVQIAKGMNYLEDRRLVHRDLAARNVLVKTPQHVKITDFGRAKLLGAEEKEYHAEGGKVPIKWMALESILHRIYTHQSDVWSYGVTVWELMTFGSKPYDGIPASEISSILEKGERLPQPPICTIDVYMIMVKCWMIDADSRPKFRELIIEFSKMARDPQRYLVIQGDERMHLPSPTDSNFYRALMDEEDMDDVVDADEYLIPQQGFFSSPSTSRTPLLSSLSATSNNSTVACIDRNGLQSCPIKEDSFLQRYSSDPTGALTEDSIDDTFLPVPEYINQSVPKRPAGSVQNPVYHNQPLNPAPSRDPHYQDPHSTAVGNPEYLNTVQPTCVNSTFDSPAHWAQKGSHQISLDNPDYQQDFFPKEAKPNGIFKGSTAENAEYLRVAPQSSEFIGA
Kind of data set: Kinase HotSpot profiling (Reaction Biology), 33P-ATP filter-binding. It counts as biochemical. The following applies: mutant EGFR L858R. On the procedure: (§4) Base Reaction buffer; 20 mM Hepes (pH 7.5), 10 mM MgCl2, 1 mM EGTA, 0.02% Brij35, 0.02 mg/ml BSA, 0.1 mM Na3VO4, 2 mM DTT, 1% DMSO
(§5) *Required cofactors are added individually to each kinase reaction
(§6) 1. The indicated substrate was prepared in fresh Base Reaction Buffer.
(§7) 2. Any required cofactors were added to the substrate solution above.
(§8) 3. Indicated kinase was added into the substrate solution and gently mixed.
(§9) 4. Compounds in DMSO were added into the kinase reaction mixture by Acoustic technology (Echo550; nanoliter range) and incubated for 20 minutes at room temperature.
(§10) 5. 33P-ATP (specific activity 10 μCi/μl) was added into the reaction mixture to initiate the reaction.
(§11) 6. The kinase reaction was incubated for 2 hours at room temperature
(§12) 7. Reactions were spotted onto P81 ion exchange paper.
(§13) 8. Kinase activity was detected by filter-binding method.
(§14) Representative compounds of Formula I were evaluated against WT EGFR and mutant EGFR (L858R and L858R, T790M) kinases. IC50 concentrations are illustrated in Table 9.

The target in data set [4] is T2, EGFR (Homo sapiens, UniProt P00533).
T2 construct: purchased Reaction Biology
T2 sequence (P00533 25-1210): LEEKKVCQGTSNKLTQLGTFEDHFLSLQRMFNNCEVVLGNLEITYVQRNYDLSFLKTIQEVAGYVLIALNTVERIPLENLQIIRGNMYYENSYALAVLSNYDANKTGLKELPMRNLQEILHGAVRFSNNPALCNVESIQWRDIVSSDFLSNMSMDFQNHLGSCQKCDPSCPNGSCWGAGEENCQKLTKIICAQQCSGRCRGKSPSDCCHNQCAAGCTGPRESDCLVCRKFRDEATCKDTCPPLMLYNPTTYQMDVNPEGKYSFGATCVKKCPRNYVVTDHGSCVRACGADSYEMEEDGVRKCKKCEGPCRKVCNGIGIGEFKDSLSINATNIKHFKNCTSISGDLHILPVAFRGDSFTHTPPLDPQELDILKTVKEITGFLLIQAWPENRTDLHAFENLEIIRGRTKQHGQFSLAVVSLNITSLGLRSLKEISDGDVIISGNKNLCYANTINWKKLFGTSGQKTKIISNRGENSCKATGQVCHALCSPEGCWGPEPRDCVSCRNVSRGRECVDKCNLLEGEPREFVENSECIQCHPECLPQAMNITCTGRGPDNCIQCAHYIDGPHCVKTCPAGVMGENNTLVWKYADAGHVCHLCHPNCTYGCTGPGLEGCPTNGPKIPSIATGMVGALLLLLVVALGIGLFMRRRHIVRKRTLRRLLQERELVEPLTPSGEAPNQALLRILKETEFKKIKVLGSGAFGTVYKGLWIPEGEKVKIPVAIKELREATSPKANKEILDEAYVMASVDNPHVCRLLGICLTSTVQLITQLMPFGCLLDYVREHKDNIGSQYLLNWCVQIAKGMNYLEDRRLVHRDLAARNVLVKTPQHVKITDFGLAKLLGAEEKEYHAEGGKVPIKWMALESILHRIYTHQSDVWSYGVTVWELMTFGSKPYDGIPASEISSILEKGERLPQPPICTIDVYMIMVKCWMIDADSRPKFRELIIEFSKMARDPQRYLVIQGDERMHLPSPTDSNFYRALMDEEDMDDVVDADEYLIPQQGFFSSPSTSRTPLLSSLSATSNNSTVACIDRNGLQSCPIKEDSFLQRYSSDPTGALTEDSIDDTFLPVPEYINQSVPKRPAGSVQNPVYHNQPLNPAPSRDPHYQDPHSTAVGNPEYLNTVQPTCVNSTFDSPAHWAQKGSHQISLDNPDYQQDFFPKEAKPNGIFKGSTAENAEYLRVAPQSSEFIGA
The description is as above. It counts as biochemical. The following applies: WT EGFR. On the procedure: as §4, §5, §6, §7, §8, §9, §10, §11, §12, §13, §14

In data set [5] the target is T3, P-gp (Homo sapiens, UniProt P08183).
T3 construct: host or cells: Caco-2 (C2BBe1)
T3 sequence (P08183 whole entry): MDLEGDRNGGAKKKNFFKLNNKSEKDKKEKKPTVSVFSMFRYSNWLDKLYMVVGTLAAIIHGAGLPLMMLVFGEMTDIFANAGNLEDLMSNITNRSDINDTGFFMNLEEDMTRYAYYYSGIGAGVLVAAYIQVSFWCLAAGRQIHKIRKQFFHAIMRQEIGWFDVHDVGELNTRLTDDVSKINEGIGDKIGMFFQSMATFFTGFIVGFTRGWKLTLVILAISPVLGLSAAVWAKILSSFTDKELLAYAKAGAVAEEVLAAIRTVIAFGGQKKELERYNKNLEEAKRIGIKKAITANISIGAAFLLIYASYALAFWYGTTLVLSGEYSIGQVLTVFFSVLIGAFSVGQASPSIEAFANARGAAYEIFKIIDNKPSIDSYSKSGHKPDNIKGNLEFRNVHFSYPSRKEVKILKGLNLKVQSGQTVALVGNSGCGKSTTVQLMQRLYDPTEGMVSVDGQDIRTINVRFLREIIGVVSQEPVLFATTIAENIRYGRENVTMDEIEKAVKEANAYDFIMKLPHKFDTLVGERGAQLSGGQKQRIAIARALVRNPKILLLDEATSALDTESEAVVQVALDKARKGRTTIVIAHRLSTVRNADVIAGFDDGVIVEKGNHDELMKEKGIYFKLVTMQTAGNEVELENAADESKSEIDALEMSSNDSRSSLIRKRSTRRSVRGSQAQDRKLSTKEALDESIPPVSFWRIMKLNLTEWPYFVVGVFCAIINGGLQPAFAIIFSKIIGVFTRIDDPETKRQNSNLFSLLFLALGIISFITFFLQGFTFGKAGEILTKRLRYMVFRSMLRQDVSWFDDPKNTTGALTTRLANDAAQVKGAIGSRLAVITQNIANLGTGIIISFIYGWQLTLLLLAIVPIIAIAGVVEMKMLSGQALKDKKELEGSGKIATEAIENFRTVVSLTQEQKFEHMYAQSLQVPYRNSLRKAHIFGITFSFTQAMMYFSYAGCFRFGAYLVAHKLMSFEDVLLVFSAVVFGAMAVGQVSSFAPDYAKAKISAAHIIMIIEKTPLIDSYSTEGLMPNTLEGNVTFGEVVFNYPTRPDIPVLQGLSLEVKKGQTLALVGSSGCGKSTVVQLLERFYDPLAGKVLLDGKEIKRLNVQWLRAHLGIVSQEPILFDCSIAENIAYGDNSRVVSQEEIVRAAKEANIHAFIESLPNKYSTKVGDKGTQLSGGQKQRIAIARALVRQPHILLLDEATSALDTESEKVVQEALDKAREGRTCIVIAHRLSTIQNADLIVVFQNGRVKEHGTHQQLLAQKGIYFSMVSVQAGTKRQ
Put plainly: Evaluation of P-gp efflux in Caco-2 cell monolayers.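 Further: Caco-2 monolayers dosed apically or basolaterally with test compound at 5 µM in HBSS with HEPES and glucose, 37 °C, donor and receiver sampled after 120 min, LC/MS peak areas.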 It counts as in vitro ADME. Background: Passage across Caco-2 layers is used to estimate intestinal permeability.

Data set [6] can be described thus: Brain concentrations after PO administration in rat, peak at 8 hours (Table 5). It counts as in vivo. The following applies: brain, PO 50 mg/kg, Table 5 (8 hours).
Setting [7] is: Caco-2, pH 7.4, with none (verapamil 0 μM), Caco-2, Verapamil 0 μM, read-out: Recovery (%) AP-BL.
The mark [8] stands for this setting: Caco-2, pH 7.4, with none (verapamil 0 μM), Caco-2, Verapamil 0 μM, read-out: Recovery (%) BL-AP.
Where [9] appears, read: Caco-2, pH 7.4, with verapamil 100 μM, Caco-2, Verapamil 100 μM, read-out: Recovery (%) AP-BL.
The mark [10] stands for this setting: Caco-2, pH 7.4, with verapamil 100 μM, Caco-2, Verapamil 100 μM, read-out: Recovery (%) BL-AP.

Regarding `FC(F)OCCOc1cc2ncnc(Nc3ccccc3Cl)c2cc1OCCOC(F)F` [2(Dd)], the “MLM (30 min)” value in data set [1] worked out at 22.2. Further, the HLM (30 min) in data set [2] was 54.7%.

`FC(F)OCCOc1cc2ncnc(Nc3ccccc3C(F)(F)F)c2cc1OCCOC(F)F` [2(Ee), 6,7-bis[2-(difluoromethoxy)ethoxy]-N-[2-(trifluoromethyl)phenyl]quinazolin-4-amine]: in data set [1], the “MLM (30 min)” value worked out at 11.8. The HLM (30 min) in data set [2] was 49.2%.

For `Fc1c(Cl)cccc1Nc1ncnc2cc(OCCOC(F)F)c(OCCOC(F)F)cc12` [2(Ff), N-(3-chloro-2-fluoro-phenyl)-6,7-bis[2-(difluoromethoxy)ethoxy]quinazolin-4-amine], the “MLM (30 min)” value in data set [1] worked out at 69.6. Also, the HLM (30 min) in data set [2] was found to be 76.4%.

As to `FC(F)OCCOc1cc2ncnc(Nc3ccc(C(F)(F)F)cc3)c2cc1OCCOC(F)F` [2(Gg), 6,7-bis[2-(difluoromethoxy)ethoxy]-N-[4-(trifluoromethyl)phenyl]quinazolin-4-amine], the “MLM (30 min)” value in data set [1] worked out at 106.2. The HLM (30 min) in data set [2] worked out at 99.8%.

In the case of `Fc1ccccc1Nc1ncnc2cc(OCCOC(F)F)c(OCCOC(F)F)cc12` [2(Hh), 6,7-bis[2-(difluoromethoxy)ethoxy]-N-(2-fluorophenyl)quinazolin-4-amine], in data set [1], the “MLM (30 min)” value turned out to be 51.8. Moreover, the HLM (30 min) in data set [2] is 71.6%.

Turning to `Fc1cccc(F)c1Nc1ncnc2cc(OCCOC(F)F)c(OCCOC(F)F)cc12` [2(Kk), 6,7-bis[2-(difluoromethoxy)ethoxy]-N-(2,6-difluorophenyl)quinazolin-4-amine], the “MLM (30 min)” value in data set [1] came out at 43.7. In addition, the HLM (30 min) in data set [2] came out at 77.6%.

For the molecule `Fc1cc(F)c(Nc2ncnc3cc(OCCOC(F)F)c(OCCOC(F)F)cc23)c(F)c1` [2(Ll), 6,7-bis[2-(difluoromethoxy)ethoxy]-N-(2,4,6-trifluorophenyl)quinazolin-4-amine], the “MLM (30 min)” value in data set [1] is 39.3. Besides, the HLM (30 min) in data set [2] was determined as 82.1%.

One may read the IC50 as the concentration needed to halve the response being measured. Low values mean inhibition by little substance, high ones a need for much substance. Consider `C#Cc1cccc(Nc2ncnc3cc(OCCOC(F)F)c(OCCOC(F)F)cc23)c1F` [2(Nn)], for which the IC50 turned out to be 0.977 nM in data set [3] and 0.587 nM in data set [4].

For `COc1cc2ncnc(Nc3ccc(F)c(Cl)c3F)c2cc1OC(=O)N1CCC(OC(F)F)CC1` [2(Oo), [4-(3-chloro-2,4-difluoro-anilino)-7-methoxy-quinazolin-6-yl] 4-(difluoromethoxy)piperidine-1-carboxylate], the IC50 in data set [3] is 0.052 nM; in data set [4], 0.0205 nM.

For the molecule `COc1cc2ncnc(Nc3ccc(F)c(Cl)c3F)c2cc1OC(=O)N1CCC[C@H](OC(F)F)C1` [2(Pp), [4-(3-chloro-2,4-difluoro-anilino)-7-methoxy-quinazolin-6-yl] (3S)-3-(difluoromethoxy)piperidine-1-carboxylate], the IC50 in data set [3] came out at 0.345 nM; in data set [4], 0.143 nM.

As to `Fc1c(Nc2ncnc3cc(OCCOC(F)F)c(OCCOC(F)F)cc23)ccc(Cl)c1Cl` [2(a), N-(3,4-dichloro-2-fluoro-phenyl)-6,7-bis[2 (difluoromethoxy)ethoxy]quinazolin-4-amine], the “MLM (30 min)” value in data set [1] came out at 72.5. Moreover, the HLM (30 min) in data set [2] is 90.7%.

For the molecule `C#Cc1cccc(Nc2ncnc3cc(OCCOC(F)F)c(OCCOC(F)F)cc23)c1` [2(b), 6,7-bis[2-(difluoromethoxy)ethoxy]-N-(3-ethynylphenyl)quinazolin-4-amine], the “MLM (30 min)” value in data set [1] came to 94.3. The HLM (30 min) in data set [2] was 96.4%.

As for `Fc1ccc(Nc2ncnc3cc(OCCOC(F)F)c(OCCOC(F)F)cc23)cc1Cl` [2(c), N-(3-chloro-4-fluoro-phenyl)-6,7-bis[2-(difluoromethoxy)ethoxy]quinazolin-4-amine], the “MLM (30 min)” value in data set [1] was 94.6. Also, the HLM (30 min) in data set [2] is 88.5%.

With `Fc1ccc(Nc2ncnc3cc(OCCOC(F)F)c(OCCOC(F)F)cc23)c(F)c1Cl` [2(d), N-(3-chloro-2,4-difluoro-phenyl)-6,7-bis[2-(difluoromethoxy)ethoxy]quinazolin-4-amine], the “MLM (30 min)” value in data set [1] is on record as 90.4. For the same molecule, the HLM (30 min) in data set [2] was found to be 83.1%.

Consider `Fc1cc(Cl)ccc1Nc1ncnc2cc(OCCOC(F)F)c(OCCOC(F)F)cc12` [2(e), N-(4-chloro-2-fluoro-phenyl)-6,7-bis[2-(difluoromethoxy)ethoxy]quinazolin-4-amine], for which the “MLM (30 min)” value in data set [1] was found to be 67.8. Further, in data set [2], the HLM (30 min) is 89.6%.

As for `COc1cc2ncnc(Nc3cccc(Cl)c3F)c2cc1OCCOC(F)F` [2(i), N-(3-chloro-2-fluoro-phenyl)-6-[2-(difluoromethoxy)ethoxy]-7-methoxy-quinazolin-4-amine], the “MLM (30 min)” value in data set [1] came to 1.5. Moreover, the HLM (30 min) in data set [2] amounted to 19.7%.

For `COc1cc2ncnc(Nc3ccc(F)c(Cl)c3F)c2cc1OCCOC(F)F` [2(k), N-(3-chloro-2,4-difluoro-phenyl)-6-[2-(difluoromethoxy)ethoxy]-7-methoxy-quinazolin-4-amine], the “MLM (30 min)” value in data set [1] was 0.7. In addition, the HLM (30 min) in data set [2] stood at 60.4%.

`COc1cc2ncnc(Nc3ccc(F)c(Cl)c3F)c2cc1NC(=O)N1CCC(COC(F)F)CC1` [3(A), N-[4-(3-chloro-2,4-difluoro-anilino)-7-methoxy-quinazolin-6-yl]-4-(difluoromethoxymethyl)piperidine-1-carboxamide]: the IC50 in data set [3] amounted to 0.0891 nM; in data set [4] it was 0.0298 nM.

As for `COc1cc2ncnc(Nc3ccc(F)c(Cl)c3F)c2cc1NC(=O)N1CC(OC(F)F)C1` [3(B), N-[4-(3-chloro-2,4-difluoro-anilino)-7-methoxy-quinazolin-6-yl]-3-(difluoromethoxy)azetidine-1-carboxamide], the IC50 in data set [3] was determined as 0.0138 nM; in data set [4], 0.0125 nM.

The Papp A→B is the apparent permeability from the apical to the basolateral side of a cell layer. Higher therefore signals fast passage. Broadly, the Papp B→A is how fast a substance crosses the layer from the basolateral side. Consider `C[C@H]1O[C@@H](O[C@H]2[C@@H](O)C[C@H](O[C@H]3[C@@H](O)C[C@H](O[C@H]4CC[C@@]5(C)[C@H](CC[C@@H]6[C@@H]5C[C@@H](O)[C@]5(C)[C@@H](C7=CC(=O)OC7)CC[C@]65O)C4)O[C@@H]3C)O[C@@H]2C)C[C@H](O)[C@@H]1O` [Digoxin], for which the recovery at 120 min, 5 μM in data set [5] (setting [7]) turned out to be 76.9%; in data set [5] (setting [8]), 84.3%; in data set [5] (setting [9]), 90.3%; in data set [5] (setting [10]), 99.7%. Further, the apparent permeability from apical to basolateral (Papp A→B) at 120 min, 5 μM in data set [5] (pH 7.4, Caco-2, Verapamil 0 μM) was determined as 6.4 nm/s. In data set [5] (pH 7.4, Caco-2, Verapamil 0 μM), the apparent permeability from basolateral to apical (Papp B→A) at 120 min, 5 μM turned out to be 158 nm/s.

The term Cmax denotes the maximum level reached in the sampled fluid or tissue. By Tmax is commonly meant the time at which the peak concentration occurs. `C#Cc1cccc(Nc2ncnc3cc(OCCOC)c(OCCOC)cc23)c1` [Erlotinib•HCl, N-(3-ethynylphenyl)-6,7-bis(2-methoxyethoxy)quinazolin-4-amine]: in data set [6] (Sprague-Dawley), the concentration peaked (Cmax) at 828 ng/g and the Tmax was 8 h. Further, in data set [6], the AUCInf came out at 18449 ng·h/g and the AUClast was found to be 14522 ng·h/g. In data set [5] (setting [7]), the recovery at 120 min, 5 μM came out at 55.5%. For the same molecule, the recovery at 120 min, 5 μM in data set [5] (setting [8]) is 56.2%. Also, in data set [5] (setting [9]), the recovery at 120 min, 5 μM came out at 76.8%. Also, the recovery at 120 min, 5 μM in data set [5] (setting [10]) was 58%. Further, in data set [5] (pH 7.4, Caco-2, Verapamil 0 μM), the apparent permeability from apical to basolateral (Papp A→B) at 120 min, 5 μM is 160 nm/s and the Papp B→A at 120 min, 5 μM came to 139 nm/s.

Usually efflux ratio stands for the permeability from basolateral to apical divided by that in the opposite direction, in the common usage. Consider `CC(C)NCC(O)COc1cccc2ccccc12` (centres unmarked) [Propranolol], for which the recovery at 120 min, 5 μM in data set [5] (setting [7]) stood at 69.8%. In data set [5] (setting [8]), the recovery at 120 min, 5 μM was found to be 85%. In data set [5] (pH 7.4, Caco-2, Verapamil 0 μM), the Papp A→B at 120 min, 5 μM was 251 nm/s; the Papp B→A at 120 min, 5 μM worked out at 163 nm/s; the efflux ratio at 120 min, 5 µM came to 0.65.
